Source: ChEMBL document CHEMBL2440076, “New triarylpyrazoles as broad-spectrum anticancer agents: design, synthesis, and biological evaluation” (Eur J Med Chem, 2013)

Experiments:
Assay type in all cases: functional
SF-295 = assay: Growth inhibition of human SF295 cells assessed as cell growth at 3X10'-7 M after 48 hrs by sulforhodamine B assay; details: SF-295, 48 h, read-out: Activity
HCT-116 = assay: Growth inhibition of human HCT116 cells assessed as cell growth at 3X10'-7 M after 48 hrs by sulforhodamine B assay; details: HCT-116, 48 h, read-out: Activity
MOLT-4 = assay: Growth inhibition of human MOLT4 cells assessed as cell growth at 3X10'-7 M after 48 hrs by sulforhodamine B assay; details: MOLT-4, 48 h, read-out: Activity
MDA-MB-468 [1] = assay: Growth inhibition of human MDA-MB-468 cells assessed as cell growth at 3X10'-8 M after 48 hrs by sulforhodamine B assay; details: MDA-MB-468, 48 h, read-out: Activity
M14 = assay: Growth inhibition of human M14 cells assessed as cell growth at 3X10'-8 M after 48 hrs by sulforhodamine B assay; details: M14, 48 h, read-out: Activity
[2] = Growth inhibition of human HCC2998 cells assessed as cell growth at 3X10'-8 M after 48 hrs by sulforhodamine B assay; details: HCC 2998, 48 h, read-out: Activity
PC-3 = assay: Growth inhibition of human PC3 cells assessed as cell growth at 3X10'-9 M after 48 hrs by sulforhodamine B assay; details: PC-3, 48 h, read-out: Activity
UO-31 = assay: Growth inhibition of human UO31 cells assessed as cell growth at 3X10'-9 M after 48 hrs by sulforhodamine B assay; details: UO-31, 48 h, read-out: Activity
SN12C = assay: Growth inhibition of human SN12C cells assessed as cell growth at 3X10'-9 M after 48 hrs by sulforhodamine B assay; details: read-out: Activity
SNB-19 = assay: Growth inhibition of human SNB19 cells assessed as cell growth at 3X10'-5 M after 48 hrs by sulforhodamine B assay; details: SNB-19, 48 h, read-out: Activity
HCT-15 [3] = assay: Growth inhibition of human HCT15 cells assessed as cell growth at 3X10'-5 M after 48 hrs by sulforhodamine B assay; details: HCT-15, 48 h, read-out: Activity
HOP-92 = assay: Growth inhibition of human HOP92 cells assessed as cell growth at 3X10'-5 M after 48 hrs by sulforhodamine B assay; details: HOP-92, 48 h, read-out: Activity
SR [4] = assay: Growth inhibition of human SR cells assessed as cell growth at 3X10'-5 M after 48 hrs by sulforhodamine B assay; details: read-out: Activity
K562 = assay: Growth inhibition of human K562 cells assessed as cell growth at 3X10'-5 M after 48 hrs by sulforhodamine B assay; details: K562, 48 h, read-out: Activity
MDA-MB-468 [5] = assay: Growth inhibition of human MDA-MB-468 cells assessed as cell growth at 3X10'-6 M after 48 hrs by sulforhodamine B assay; details: MDA-MB-468, 48 h, read-out: Activity
MDA-MB-231 = assay: Growth inhibition of human MDA-MB-231 cells assessed as cell growth at 3X10'-6 M after 48 hrs by sulforhodamine B assay; details: MDA-MB-231, 48 h, read-out: Activity
UACC-62 = assay: Growth inhibition of human UACC62 cells assessed as cell growth at 3X10'-9 M after 48 hrs by sulforhodamine B assay; details: UACC-62, 48 h, read-out: Activity
HT-29 = assay: Growth inhibition of human HT-29 cells assessed as cell growth at 3X10'-9 M after 48 hrs by sulforhodamine B assay; details: HT-29, 48 h, read-out: Activity
[6] = Growth inhibition of human HCC2998 cells assessed as cell growth at 3X10'-9 M after 48 hrs by sulforhodamine B assay; details: HCC 2998, 48 h, read-out: Activity
NCI-H460 = assay: Growth inhibition of human NCI-H460 cells assessed as cell growth at 3X10'-9 M after 48 hrs by sulforhodamine B assay; details: NCI-H460, 48 h, read-out: Activity
SR [7] = assay: Growth inhibition of human SR cells assessed as cell growth at 3X10'-9 M after 48 hrs by sulforhodamine B assay; details: read-out: Activity
UACC-257 = assay: Growth inhibition of human UACC257 cells assessed as cell growth at 3X10'-6 M after 48 hrs by sulforhodamine B assay; details: UACC-257, 48 h, read-out: Activity
SK-MEL-28 = assay: Growth inhibition of human SK-MEL-28 cells assessed as cell growth at 3X10'-6 M after 48 hrs by sulforhodamine B assay; details: SK-MEL-28, 48 h, read-out: Activity
SK-MEL-2 = assay: Growth inhibition of human SK-MEL-2 cells assessed as cell growth at 3X10'-6 M after 48 hrs by sulforhodamine B assay; details: SK-MEL-2, 48 h, read-out: Activity
SF-268 = assay: Growth inhibition of human SF268 cells assessed as cell growth at 3X10'-6 M after 48 hrs by sulforhodamine B assay; details: SF-268, 48 h, read-out: Activity
HCT-15 [8] = assay: Growth inhibition of human HCT15 cells assessed as cell growth at 3X10'-6 M after 48 hrs by sulforhodamine B assay; details: HCT-15, 48 h, read-out: Activity
NCI-H23 = assay: Growth inhibition of human NCI-H23 cells assessed as cell growth at 3X10'-6 M after 48 hrs by sulforhodamine B assay; details: NCI-H23, 48 h, read-out: Activity
HOP-62 = assay: Growth inhibition of human HOP62 cells assessed as cell growth at 3X10'-6 M after 48 hrs by sulforhodamine B assay; details: HOP-62, 48 h, read-out: Activity
HL-60(TB) = assay: Growth inhibition of human HL-60(TB) cells assessed as cell growth at 3X10'-6 M after 48 hrs by sulforhodamine B assay; details: HL-60, 48 h, read-out: Activity
T47D = assay: Growth inhibition of human T47D cells assessed as cell growth at 3X10'-7 M after 48 hrs by sulforhodamine B assay; details: read-out: Activity
TK-10 = assay: Growth inhibition of human TK10 cells assessed as cell growth at 3X10'-7 M after 48 hrs by sulforhodamine B assay; details: TK-10, 48 h, read-out: Activity

Structure (SMILES) | growth at 0.3 µM (SF-295) [%] | growth at 0.3 µM (HCT-116) [%] | growth at 0.3 µM (MOLT-4) [%] | growth at 0.03 µM (MDA-MB-468 [1]) [%] | growth at 0.03 µM (M14) [%] | growth at 0.03 µM [2] [%] | growth at 0.003 µM (PC-3) [%] | growth at 0.003 µM (UO-31) [%] | growth at 0.003 µM (SN12C) [%] | growth at 30 µM (SNB-19) [%] | growth at 30 µM (HCT-15 [3]) [%] | growth at 30 µM (HOP-92) [%] | growth at 30 µM (SR [4]) [%] | growth at 30 µM (K562) [%] | growth at 3 µM (MDA-MB-468 [5]) [%] | growth at 3 µM (MDA-MB-231) [%] | growth at 0.003 µM (UACC-62) [%] | growth at 0.003 µM (HT-29) [%] | growth at 0.003 µM [6] [%] | growth at 0.003 µM (NCI-H460) [%] | further results
O=C(Nc1cccc(-n2cc(-c3ccncc3)c(-c3ccc(Cl)c(O)c3)n2)c1)Nc1ccc(Cl)c(C(F)(F)F)c1 | 90 | 94 | 83 | 85 | 101 | 102 | 93 | 94 | 95 | -42 | -2 | -63 | -7 | 1 | -27 | -38 | 98 | 97 | 100 | 103 | growth at 0.003 µM (SR [7]): 106%; growth at 3 µM (UACC-257): -22%; growth at 3 µM (SK-MEL-28): 1%; growth at 3 µM (SK-MEL-2): -41%; growth at 3 µM (SF-268): 10%; growth at 3 µM (HCT-15 [8]): 4%; growth at 3 µM (NCI-H23): 1%; growth at 3 µM (HOP-62): 11%; growth at 3 µM (HL-60(TB)): 6%; growth at 0.3 µM (T47D): 95%; growth at 0.3 µM (TK-10): 101%
COc1cc(-c2nn(-c3cccc(NC(=O)c4ccc(Cl)c(C(F)(F)F)c4)c3)cc2-c2ccncc2)ccc1Cl | 90 | 100 | 98 | 91 | 96 | 95 | 94 | 82 | 98 | 29 | 25 | -8 | 4 | 11 | 52 | 27 | 99 | 90 | 95 | 103 | growth at 0.003 µM (SR [7]): 99%; growth at 3 µM (UACC-257): 60%; growth at 3 µM (SK-MEL-28): 49%; growth at 3 µM (SK-MEL-2): 36%; growth at 3 µM (SF-268): 56%; growth at 3 µM (HCT-15 [8]): 50%; growth at 3 µM (NCI-H23): 59%; growth at 3 µM (HOP-62): 73%; growth at 3 µM (HL-60(TB)): 58%; growth at 0.3 µM (T47D): 92%; growth at 0.3 µM (TK-10): 108%
